{"source": "patent US4956389A", "about": "“Compounds having calcium blocking activity” (priority 1982, dated 1990)", "key": {"[1]": {"tested_on": "kidney cells in newborn hamsters", "assay": "Inhibition of Ca2+-uptake in kidney cells in newborn hamsters", "type": "cell-based, hamster", "protocol": "Cells of kidneys of newborn hamsters have been washed and then resuspended several times in concentration of 5·10^6 /cc in the medium of the following composition:\nAfter 15 minutes of preincubation at 30° C., the reaction was made to begin by addition to the medium of ^45 CaCl2 1 mM (0.1μCi/cc). The concentrations at 0 period of time were the concentrations determined two minutes after the addition. The other controls were carried out after 5 minutes, 10 minutes, and 20 minutes. The determination of [Ca^2+ ] was carried out as in the preceding experiment."}, "[2]": {"tested_on": "mitochondria of liver of rats", "assay": "Inhibition of Ca2+-uptake in mitochondria of liver of rats", "type": "biochemical, rat", "conditions": "250 μM", "protocol": "The mitochondria prepared according to classical methods are diluted to a concentration of 1.5 mg/cc in a medium of incubation which has the following composition:\nAfter a period of 15 minutes of preincubation at 20° C. there was added ^45 CaCl2 (50 n mol/mg prot.).\nIn a manner analogous to the preceding experiments, the concentrations determined after two minutes were called the concentration at 0 period of time. The other controls were determined after 5 minutes, after 10 minutes and after 15 minutes. For the determination of Ca^2+, the experiment was carried out in a manner analogous to the preceding experiments.\nThe results are reported in Table 3 as the quantity of Ca transferred per mg of protein"}, "portions of the aorta": {"tested_on": "portions of the aorta", "assay": "Contraction of aorta portions by arachidonic acid after oral administration to rabbits (studies in vivo)", "design": "species or system rabbit", "protocol": "Both substances YS 035 and Nicardipine have been administered orally for a period of three consecutive days to rabbits in such a manner that the last administration of each substance was carried out one hour prior to killing the animals. The portions of the aorta had then been incubated either in PRP as well as in the Krebs-Henseleit liquid."}, "rats": {"tested_on": "rats", "assay": "Effect on the multiple cerebral infarct in rats (intracarotid sodium arachidonate)", "type": "in vivo, rat", "conditions": "15 minutes prior to the infarct", "protocol": "The intracarotid injection of sodium arachidonate (0.1 mg) causes in rats an edema reaction accompanied by an accumulation of calcium in the brain tissue and a decrease, on the other hand, of the cholesterol level."}}, "note": "“And” between values parts separate entries of the source, which are not always exact repeats. Equal entries are not always repeated.", "data": [{"smiles": "COc1ccc(CCN(C)CCc2ccc(OC)c(OC)c2)cc1OC", "note": "[YS 035, N-methyl-N-bis-(3,4-dimethoxy-phenyl-ethyl)amine]", "values": [{"measurement": "Ca2+-uptake", "setting": "[1]; 250 μM, 30° C., control 11.9", "result": 7.5, "unit": "n g ions/mg prot/15'"}, {"measurement": "inhibitory action on the uptake of Ca (in words)", "setting": "[1]; 250 μM, compared with nifedipine", "result": "superior to the activity of nifedipine"}, {"measurement": "percent change in Ca2+-uptake versus control at 250 µM", "setting": "[1]; Mesocricetus auratus, 0.25 h, 15 min", "result": -36.9, "unit": "%"}, {"measurement": "Ca2+-uptake", "setting": "[2]; 20° C., control 14.3", "result": 11.0, "unit": "n g ions/mg prot."}, {"measurement": "inhibitory activity on the uptake of Ca (in words)", "setting": "[2]; compared with nifedipine", "result": "slightly inferior to the activity of nifedipine"}, {"measurement": "Amplitude of contraction, medium Krebs, individual values", "setting": "portions of the aorta; 10 mg·Kg^-1 P.O., Krebs, controls 12 ± 2.3", "result": "-6 mm and +7 mm"}, {"measurement": "Amplitude of contraction, PRP, individual values", "setting": "portions of the aorta; 10 mg·Kg^-1 P.O., PRP, controls 30 ± 8.0", "result": "+28 mm"}, {"measurement": "site of action (in words)", "setting": "portions of the aorta; aortic endothelial level, particularly PGI2", "result": "act directly on the synthesis of prostaglandin"}, {"measurement": "entry of calcium in brain tissue (in words)", "setting": "rats; 1 mg/kg intravenously", "result": "reduces moderately the entry of calcium"}, {"measurement": "other changes at the biochemical level (in words)", "setting": "rats; intravenously, 1, 3.3 and 10 mg/kg", "result": "no effect"}]}]}
